Measurements as given in patent US11932898B2, “Precision therapeutic biomarker screening for cancer” (UNIVERSITY OF MIAMI, priority 2016, dated 2024).
Values belong to the molecule of their own block, whether it stands above or below them.

Columns and labels:
[1] = tested on: human tumor cell lines; assay: component-wise IC50 values of the SANGER drug sensitivity dataset, clustered by generalized FMMR cell line components; assay type: cell-based; conditions: for magnitude of IC50s for overlapping component 12: component-wise IC50 boxplots, FIG. 11A-11E, cell line components 1, 2 and 12
Excerpt: Cancer cell lines have frequently been used as a convenient way of conducting such studies. For a systematic search of therapeutic biomarkers to a variety of cancer drugs, Garnett et al. (2012) screened 639 human tumor cell lines which represent much of the tissue-type and genetic diversity of human cancers with 130 drugs. These drugs, including approved drugs, drugs in development as well as experimental tool compounds, cover a wide range of targets and processes involved in cancer biology. In the Garnett et al. work, a range of 275-507 cell lines were screened for each drug. The effect of a 72 h drug treatment on cell viability was used to derive measures of drug sensitivity, including the half-maximal inhibitory concentration (IC50). In addition, the cell lines underwent sequencing of 64 known cancer genes, genome-wide analysis of copy number gains and losses, and expression profiling of 14,500 genes.
We applied the innovative techniques herein to analyzing the SANGER high throughput drug sensitivity dataset for cancer. […] The responses, made up with IC50 values from pairwise drug-cell-line screening, has some missing values. Therefore the data was first filtered by removing cell lines for which less than 50% of the drugs were tested, resulting in 591 cell lines remaining. In the remaining data, about 37.4% of the cell lines are with missing values. These missing values are imputed via the random forest imputation algorithm (Ishwaran, Kogalur, Blackstone and Lauer 2008; Stekhoven and Buhlmann 2012).
In order to identify patterns of cancer-specific therapeutic biomarkers, we employed method gEMseplasso in the analysis. […]
In the second step, the process uses an affinity-propagation clustering (APC) algorithm (Frey and Dueck 2007) to group the 140 drugs based on results from the first step. […] The pair-wise similarity matrix required by the algorithm as input data is calculated from the Euclidean distance between Za and Zb. […] The pair-wise similarity matrix is calculated from the Euclidean distance between Bk^a and Bk^b for k=1, . . . , 3. […]

[2] = tested on: soft tissue cancer; conditions: soft tissue cancer resistant to standard chemotherapy (doxyrubicin); small sample size phase II study; cited from earlier work
[3] = tested on: chronic myeloid leukemia (CML); conditions: cited from earlier work

component with highest IC50s ([1]; among cell line components 1, 2, and 12): component 2
magnitude of IC50s for overlapping component 12 [1]: between those for component 1 and 2
SMILES: COc1cc2ncn(-c3cc(OCc4ccccc4C(F)(F)F)c(C(N)=O)s3)c2cc1OC [GW843682X]

SMILES: Nc1ccn([C@@H]2O[C@H](CO)[C@@H](O)C2(F)F)c(=O)n1 [Gemcitabine]
effectiveness in soft tissue cancer [2]: effective

SMILES: Nc1ccccc1NC(=O)c1ccc(CNC(=O)OCc2cccnc2)cc1 [MS.275]
magnitude of IC50s for overlapping component 12 [1]: between those for component 1 and 2

SMILES: Cc1ccc(NC(=O)c2ccc(CN3CCN(C)CC3)cc2)cc1Nc1nccc(-c2cccnc2)n1 [imatinib]
blood counts ([3]; CML patients who had exhausted standard treatment options, tested in 1998): returning to normal
five-year survival rate ([3]; CML patients): 95%
